Reference: patent US12447153B2, “HER2 mutation inhibitors” (Array BioPharma Inc., priority 2021, dated 2025)

Assays:
EGFR = EGFR (Homo sapiens (Human), UniProt P00533); experiment: ErbB Enzyme Assay (HTRF KinEASE-TK), Assay 3; assay type: biochemical
Experimental: The kinases were incubated with 250 nM TK-substrate biotin (CisBio, part of cat #62TKOPEC) at 1 mM ATP along with test compounds in a buffer consisting of 25 mM HEPES, pH 7.4, 10 mM MgCl2, 0.01% Triton X-100, and 2% DMSO in a volume of 8 μL. […] After 30-minute incubation at 22° C., the reaction was quenched by adding 8 μL of quench solution containing 62.5 nM Sa-XL665 and 0.25×TK-Ab-Cryptate in HTRF detection buffer (all from CisBio, part of cat #62TKOPEC). […] A 4-parameter logistic curve was fit to the POC values as a function of the concentration of compound, and the IC50 value was the point where the best-fit curve crossed 50 POC.

EGFR wild type (EGFR WT) = EGFR wild type (EGFR WT) (Homo sapiens (Human), UniProt P00533); experiment: Cellular Phosphorylation Assay, Assay 5 (EGF-stimulated EGFR phosphorylation, NIH 3T3 cells); assay type: cell-based
Sequence of EGFR wild type (EGFR WT) (P00533 25-1210): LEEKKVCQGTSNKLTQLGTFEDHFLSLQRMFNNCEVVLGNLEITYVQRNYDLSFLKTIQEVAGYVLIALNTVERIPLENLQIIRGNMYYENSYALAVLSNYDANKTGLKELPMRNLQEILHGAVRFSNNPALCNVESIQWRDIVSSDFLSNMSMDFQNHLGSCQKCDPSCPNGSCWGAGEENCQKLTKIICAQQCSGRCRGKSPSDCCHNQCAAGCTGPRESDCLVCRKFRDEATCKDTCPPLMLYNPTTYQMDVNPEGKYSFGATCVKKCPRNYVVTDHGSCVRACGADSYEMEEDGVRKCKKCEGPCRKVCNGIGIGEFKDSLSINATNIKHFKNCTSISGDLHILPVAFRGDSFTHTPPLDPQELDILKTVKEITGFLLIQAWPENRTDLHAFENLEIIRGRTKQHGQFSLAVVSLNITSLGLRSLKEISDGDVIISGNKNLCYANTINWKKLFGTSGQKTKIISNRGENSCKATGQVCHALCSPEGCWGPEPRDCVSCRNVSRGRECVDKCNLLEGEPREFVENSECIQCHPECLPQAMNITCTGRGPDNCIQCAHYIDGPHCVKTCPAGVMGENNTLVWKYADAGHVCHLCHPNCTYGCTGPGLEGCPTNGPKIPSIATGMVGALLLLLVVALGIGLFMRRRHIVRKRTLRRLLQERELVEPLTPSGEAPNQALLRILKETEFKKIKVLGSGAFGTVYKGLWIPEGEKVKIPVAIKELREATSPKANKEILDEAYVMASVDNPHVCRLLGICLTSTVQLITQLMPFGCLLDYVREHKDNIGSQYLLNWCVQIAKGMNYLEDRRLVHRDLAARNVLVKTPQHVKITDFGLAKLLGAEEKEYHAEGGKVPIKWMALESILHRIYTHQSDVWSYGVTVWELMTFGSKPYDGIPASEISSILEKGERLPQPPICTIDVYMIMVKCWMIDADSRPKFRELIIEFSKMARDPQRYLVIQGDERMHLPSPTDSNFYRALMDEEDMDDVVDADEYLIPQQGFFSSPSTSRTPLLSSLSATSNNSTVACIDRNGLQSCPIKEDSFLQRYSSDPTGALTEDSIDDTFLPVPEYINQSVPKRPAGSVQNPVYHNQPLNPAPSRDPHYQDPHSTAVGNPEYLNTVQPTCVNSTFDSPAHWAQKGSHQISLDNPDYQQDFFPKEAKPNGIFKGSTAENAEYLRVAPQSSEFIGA
Experimental: NIH 3T3 cells were engineered to express ErbB2 with Exon 20 YVMA insertion (HER2-YVMA (SEQ ID NO: 2); Assay 4) or EGFR wild type (EGFR WT; Assay 5) with constructs obtained from GenScript and grown in DMEM supplemented with 10% fetal bovine serum and 15 μg/ml blasticidin. […] Serially diluted compounds were added to the plates for 1 hour at 37° C./5% CO2. EGFR WT cells were stimulated with 100 ng/ml rEGF for an additional 10 minutes at 37° C./5% CO2.
After compound incubation, medium was removed from the cells, which were then fixed in 3.7% formaldehyde in PBS at room temperature for 20 minutes. Following a wash with PBS, cells were permeabilized with 100% methanol at room temperature for 10 minutes. Cells were then washed with PBS/0.05% Tween-20 and blocked with Odyssey blocking buffer (LI-COR Biosciences) for at least 1 hour at room temperature. Antibodies to phosphorylated ErbB2 (Y1196, Cell Signaling #6942) or phosphorylated EGFR (Y1068, Cell Signaling #3777) and GAPDH (Millipore #MAB374) were added to the cells in blocking buffer containing 0.05% azide and incubated overnight at 4° C. After washing with PBS/0.05% Tween-20, the cells were incubated with fluorescently labeled secondary anti-rabbit antibody (LiCOR, IRDye 800CW #926-32211) and anti-mouse antibody (Molecular Probes, Alexa Fluor 680 #A21058) for 1 hour at room temperature in the dark. Cells were then washed and analyzed for fluorescence at both wavelengths using the Odyssey Infrared Imaging System (LI-COR Biosciences). Phosphorylated ErbB2 and EGFR signal was normalized to GAPDH signal to generate curves and calculate IC50 values.

[1] = cellular EGFR WT phosphorylation, EGF-stimulated
[2] = EGF-stimulated EGFR WT phosphorylation

Sequence of EGFR (P00533 25-1210): as above

Row | SMILES | IC50 (EGFR; EGFR enzyme assay) [µM] | IC50 (EGFR wild type (EGFR WT); [1]) [µM] | IC50 (EGFR; EGFR enzyme) [µM] | IC50 (EGFR wild type (EGFR WT); [2]) [µM]
1 | C=CC(=O)N1CCC(Oc2ccc3ncnc(Nc4ccc(Oc5cnc6cn(C)nc6c5)c(C)c4F)c3n2)CC1 [Example 58, 1-(4-((4-((2-fluoro-3-methyl-4-((2-methyl-2H-pyrazolo[4,3-b]pyridin-6-yl)oxy)phenyl)amino)pyrido[3,2-d]pyrimidin-6-yl)oxy)piperidin-1-yl)prop-2-en-1-one] | – | – | ≥ 10 | 2.23
2 | C=CC(=O)N1CC[C@H]2CN(c3ccc4ncnc(Nc5ccc(Oc6ccc7c(c6)ncn7C)c(C)c5)c4n3)C[C@H]21 [Example 117, 1-((3aS,6aS)-5-(4-((3-methyl-4-((1-methyl-1H-benzo[d]imidazol-5-yl)oxy)phenyl)amino)pyrido[3,2-d]pyrimidin-6-yl)hexahydropyrrolo[3,4-b]pyrrol-1(2H)-yl)prop-2-en-1-one] | – | – | ≥ 10 | ≥ 5
3 | C=CC(=O)N1CC[C@@H]2CN(c3ccc4ncnc(Nc5ccc(Oc6ccc7c(c6)ncn7C)c(C)c5)c4n3)C[C@@H]21 [Example 111, 1-((3aR,6aR)-5-(4-((3-methyl-4-((1-methyl-1H-benzo[d]imidazol-5-yl)oxy)phenyl)amino)pyrido[3,2-d]pyrimidin-6-yl)hexahydropyrrolo[3,4-b]pyrrol-1(2H)-yl)prop-2-en-1-one] | – | – | ≥ 10 | ≥ 5
4 | C=CC(=O)N1CC[C@H]2CN(c3ccc4ncnc(Nc5ccc(Oc6ccn7ncnc7c6)c(C)c5F)c4n3)C[C@H]21 [Example 50, 1-((3aS,6aS)-5-(4-((4-([1,2,4]triazolo[1,5-a]pyridin-7-yloxy)-2-fluoro-3-methylphenyl)amino)pyrido[3,2-d]pyrimidin-6-yl)hexahydropyrrolo[3,4-b]pyrrol-1(2H)-yl)prop-2-en-1-one] | – | – | ≥ 10 | 3.22
5 | C=CC(=O)N1CC[C@H]2CN(c3ccc4ncnc(Nc5ccc(Oc6ccc7c(c6)ncn7C)c(C)c5)c4n3)C[C@H]21 (racemic) [Example 104, rac-1-((3aR,6aR)-5-(4-((3-methyl-4-((1-methyl-1H-benzo[d]imidazol-5-yl)oxy)phenyl)amino)pyrido[3,2-d]pyrimidin-6-yl)hexahydropyrrolo[3,4-b]pyrrol-1(2H)-yl)prop-2-en-1-one] | – | – | ≥ 10 | ≥ 5
6 | C=CC(=O)N1CC[C@@H]2CN(c3ccc4ncnc(Nc5ccc(Oc6ccn7ncnc7c6)c(C)c5F)c4n3)C[C@@H]21 [Example 71, 1-((3aR,6aR)-5-(4-((4-([1,2,4]triazolo[1,5-a]pyridin-7-yloxy)-2-fluoro-3-methylphenyl)amino)pyrido[3,2-d]pyrimidin-6-yl)hexahydropyrrolo[3,4-b]pyrrol-1(2H)-yl)prop-2-en-1-one] | – | – | ≥ 10 | ≥ 5
7 | C=CC(=O)N1[C@H](C)CN(c2ccc3ncnc(Nc4ccc(Oc5ccn6ncnc6c5)c(C)c4F)c3n2)C[C@@H]1C [Example 264] | 6.67 | 4.55 | – | –

Second part, the molecule after the results:

Row | IC50 (EGFR; EGFR enzyme assay) [µM] | IC50 (EGFR wild type (EGFR WT); [1]) [µM] | IC50 (EGFR; EGFR enzyme) [µM] | IC50 (EGFR wild type (EGFR WT); [2]) [µM] | SMILES
8 | ≥ 10 | ≥ 5 | – | – | C=CC(=O)N1C[C@H]2CC[C@@H]1[C@H](c1ccc3ncnc(Nc4cc(C)c(Oc5ccn6ncnc6c5)cc4F)c3n1)C2 [Example 395]
9 | 0.895 | 0.526 | – | – | C=CC(=O)N1CCC12CN(c1ccc3ncnc(Nc4ccc(Oc5ccn6ncnc6c5)c(C)c4F)c3n1)C2 [Example 275]
10 | ≥ 10 | ≥ 5 | – | – | C=CC(=O)N1CC2(C1)CN(c1ccc3ncnc(Nc4cc(Cl)c(Oc5ccn6ncnc6c5)cc4F)c3n1)C2 [Example 342]
11 | 2.35 | 0.681 | – | – | C=CC(=O)N1CCN(c2ccc3ncnc(Nc4ccc(Oc5ccn6ncnc6c5)c(C)c4F)c3n2)C[C@H]1CC [Example 274]
12 | 4.94 | ≥ 5 | – | – | C=CC(=O)N1C[C@H]2CC[C@@H]1C[C@H]2c1ccc2ncnc(Nc3cc(C)c(Oc4ccn5ncnc5c4)cc3F)c2n1 [Example 402]
13 | 4.06 | ≥ 5 | – | – | C=CC(=O)N1C[C@H]2CC[C@@H]1[C@@H](c1ccc3ncnc(Nc4cc(C)c(Oc5ccn6ncnc6c5)cc4F)c3n1)C2 [Example 396]
